Molecules are shown by their SMILES.

One may read the melting point as the temperature of the solid-liquid transition. As for `Fc1ccc2c(c1)nc(/C=C/c1ccoc1)n2-c1ccccn1`, the melting point is 168 to 170 °C.
`CCOc1cccc(CSc2nc3cnccc3[nH]2)c1` registered a melting point of 158 to 161 °C.
`C[C@@H]1N(C)C(C)(C)CO[C@@]1(O)c1cccc(Cl)c1` gave a melting point of 128 to 129 °C.
The same measure for `CCCOC(=O)C1=C(C)NC(C(OC)OC)=C(C(=O)OC)C1c1ccccc1C#N` (configuration not stated): 139 to 141 °C; for `COC(=O)c1nn(CCN(C)C)c2nc3cc(OC)ccc3cc12`: 127 to 128 °C; for `CC1(C)CC(=O)C(S(=O)CC2CCCCC2)=C(O)C1` (configuration not stated): 77 to 79.5 °C.
The same measure for `O=C(N(CCCc1ccncc1)Cc1ccccc1)N(CCCc1ccccc1)C1CCCCC1`: 107 to 112 °C; for `CCc1nc2c(N)nc3ccccc3c2n1CC1(O)CCOC1` (configuration not stated): 245 to 247 °C; for `CC1=CC(=C(C#N)C#N)C=C(C)N1CCOCCCl`: 148 to 149 °C.
As for `CCOC(=O)C(C#N)=C1CCN(c2ccc(OC)cc2)CC1`, the melting point was 87 °C.
Then `CC(=Cc1ccc(N(C)C)cc1Br)[N+](=O)[O-]`, with 102 to 103 °C.
Then `Cc1oc(-c2ccccc2)nc1CCOc1ccc(NC(=O)C(=O)O)cc1`, with 196 to 198 °C; and `N#Cc1cnn2c(C(F)(F)F)cc(-c3ccccn3)nc12`, with 208 °C; and `CC(O)c1nccc2c1CCCC2` (configuration not stated), with 60 to 61 °C.
Then `O=C=NC(=O)CS(=O)(=O)c1ccc(Cl)cc1`, with 58 to 60 °C; and `CCCNC(=O)c1ccc(Nc2nc(OCC3CCCCC3)c3nc[nH]c3n2)cc1`, with 226 to 228 °C; and `O=c1nc(-c2ccccc2)c2ccccc2n1CC(F)(F)F`, with 182 °C.
Compound `Cc1nccc(C#N)c1OC1SCC(O)C(O)C1O` (configuration not stated) gave a melting point of 161 °C.
Then `Oc1nsc(SCc2ccc(Cl)cc2Cl)n1`, with 134 °C.
The same measure for `COc1cc(OC)nc(C(C)c2ccccc2NS(=O)(=O)C(F)(F)F)n1` (configuration not stated): 132 to 133 °C; for `Cc1ccc(C2(CNC(=O)Nc3c(C(C)C)cccc3C(C)C)CCCC2)cc1`: 159 to 161 °C.
The same measure for `COS(=O)(=O)Cc1cccc(-c2nc(=O)c3ccccc3s2)n1`: 102 °C; for `Cc1cc(SC(C)C)c(NC(=O)CCCCCCCSc2nc3ccccc3s2)c(SC(C)C)n1`: 107 to 108 °C.
The compound `CCOCc1cc(CCCOc2c(C)cc(-c3noc(C(F)(F)F)n3)cc2C)on1` yielded a melting point of 24 to 25 °C.
Then `CCc1nc(NC(=O)c2cc(Br)ccc2O)sc1-c1ccccc1`, with 224 to 225 °C; and `O=C(NCc1ccccc1)c1ccnc(N2CCN(Cc3ccncc3)C2=O)c1`, with 154 to 156 °C.
The same measure for `N#Cc1ccc(C2=NOC3(CCN(C(=O)CCCC(=O)O)CC3)C2)cc1`: 183 to 185 °C; for `CS(=O)c1c2ccccc2c(C=O)c2ccccc12` (configuration not stated): 182 to 184 °C; for `CC(=O)OCCn1c([N+](=O)[O-])cnc1C=O`: 203 to 205 °C.
The same measure for `COc1ccc2[nH]c(C)c(/C=C/C(=O)c3cccnc3)c2c1`: 193 to 195 °C.
For `COC(=O)c1c(Cn2cncn2)nc2cc(OC)c(OC)cc2c1-c1ccc(OC)c(OC)c1`, the melting point is 218 to 220 °C.
Consider `OC1CCC(Oc2ccc3[nH]ncc3c2)CC1` (configuration not stated), for which the melting point was 112 to 118 °C.
In turn, `COc1ccc(S(=O)(=O)N2CSC(C)(C)[C@@H]2C(=O)NO)cc1` had a melting point of 68 to 71 °C.
Then `CCCC1=C(C#N)C(c2cccnc2)c2c[nH]nc2N1` (configuration not stated), with 201 °C; and `COc1ccc(C(Cc2ccc(C(N)=O)cc2)c2ccccc2)cc1OC1CCCC1` (configuration not stated), with 73 to 75 °C.
Then `Cc1ccc(C2Sc3cc(C)ccc3NC(=O)C2=O)cc1` (configuration not stated), with 142 to 144 °C.
The same measure for `NNc1nc2c(Cl)cccc2s1`: 232 to 235 °C; for `O=C(O)CC1(O)CCC(N2CCN(CCCNc3ccncc3)CC2)CC1` (configuration not stated): 242 °C; for `COc1ccc2c(c1)c(S(=O)(=O)c1ccccc1)cn2CCNCc1ccccc1`: 98 to 99 °C.
For `CC(CCCc1ccccc1)c1cc2c(cc1O)C1=C(CCCC1=O)C(C)(C)O2` (configuration not stated), the melting point is 186 to 188 °C.
Then `CCN(CC)C(=O)c1ccc2cc(C(=O)O)ccc2c1`, with 122 to 124 °C; and `CCC1C(=O)N(CCCCN2CCN(c3ccccn3)CC2)c2cc(F)ccc21` (configuration not stated), with 137 to 139 °C; and `Cc1cccc(S(=O)(=O)N=CN(C)C)c1C#N`, with 168 to 174 °C.
Then `COC(=O)c1sc2ccccc2c1OCC(C)=O`, with 57 to 58 °C; and `CCOCc1nc2c(N)nc(C)c(C)c2n1CCCNC(=O)OCC`, with 148 to 150 °C; and `COc1ccn2nc(-c3ccccc3)c(-c3ccc(=O)[nH]n3)c2c1`, with 246 to 247 °C.
Then `CCNCC1CCN(c2cc3c(cc2F)c(=O)c(C(=O)O)cn3CC)C1` (configuration not stated), with 248 to 252 °C; and `CCOC(=O)C=Cc1cn(C(=O)OC(C)(C)C)c2cnc(-n3cncn3)cc12`, with 178 to 181 °C; and `CNc1nc(-c2ccncc2)n[nH]1`, with 228 to 230 °C.
As for `CC(=O)Nc1c(C)nn(C)c1C`, the melting point was 118 to 119 °C.
The same measure for `N#Cc1ccc(NC2CCN(Cc3cccc(C(F)(F)F)c3)CC2)nn1`: 170 °C; for `Cc1cc(N)nc(C)c1-c1ccc(Cl)cc1`: 148 to 152 °C; for `CC(C)(C)Nc1nc(NC(C)(C)C)nc(N2CC3CCC(CC3)C2)n1`: 217 to 222 °C.
Then `CCCCCCCc1cn(CC(O)c2ccccc2)c(=N)s1` (configuration not stated), with 124 °C; and `CC(c1cccs1)N(O)C(N)=O` (configuration not stated), with 130 °C; and `Cc1cc(CCCCCOc2ccc(C(N)=S)cc2)on1`, with 156 to 158 °C.
The same measure for `Clc1cc(-c2ccccc2)nc2nn(-c3ccccc3)cc12`: 175 to 177 °C; for `N=C(N)NCCc1ccc(OCCCC(c2ccccc2)(c2ccccc2)c2ccccc2)cc1`: 169 to 170 °C; for `CCCCCCCCS(=O)c1ccc(CC(N)(CO)CO)cc1` (configuration not stated): 80 to 82 °C.
As for `CCOC(=O)C1(C(=O)N(C)c2cccc3cc(-c4nccs4)[nH]c23)CCC1`, the melting point came out at 197 °C.
The same measure for `CCOC(=O)c1c(Cl)c(Cl)c(Cl)c(Cl)c1C#N`: 74 to 75 °C; for `COc1ccc(S(=O)(=O)F)nn1`: 87 to 88 °C.
As for `CC(C)(C)OC(=O)NC(CC#N)COc1noc2ccc(Cl)cc12` (configuration not stated), the melting point fell in the range of 147 to 148 °C.
Compound `C[Si](C)(C)C#Cc1ccc(C2=CC(c3ccc(C#C[Si](C)(C)C)cc3)N(c3ccccc3)N2)cc1` (configuration not stated) displayed a melting point of 108 to 110 °C.
The compound `COc1cc(C(=O)NS(=O)(=O)c2ccccc2)ccc1Cn1nc(OC)c2ccc(NC(=O)OC3CCCC3)cc21` displayed a melting point of 246 to 248 °C.
Then `CSc1cc2cc(-c3ccccc3)ccc2cc1OS(=O)(=O)C(F)(F)F`, with 79.4 to 80.3 °C.
`COc1ccccc1C(=O)NN=C(CC(C)C)c1ccncc1` returned a melting point of 130 °C.
The same measure for `Cc1ncn(-c2nc(C(=O)NCc3ccc(F)c(C)c3)c(O)c(=O)n2C)n1`: 204 to 205 °C.
The same measure for `CC=C(Cc1ccccc1)NNC(=O)OC(C)(C)C`: 76 to 79 °C; for `CC(C)(C)OC(=O)N1CCN(c2cccc(Cl)c2/C=N/NS(=O)(=O)c2ccccc2)CC1`: 162 to 165 °C; for `CCCC(NC(=O)Nc1cccc(C)c1)C(=S)N(CC(=O)OC(C)(C)C)c1ccccc1` (racemic): 142 °C.
Then `O=C(c1ccccc1)N1CCc2[nH]c3cccc(CCCOc4ccccc4)c3c2CC1`, with 121 to 124 °C.
In turn, `CCCCOCc1cnc2nc(N)[nH]c(=O)c2n1` displayed a melting point above 300 °C.
The same measure for `COCCNC(=O)c1ccc(C(=O)C=C(c2cc(Cl)cc(Cl)c2)C(F)(F)F)cc1`: 150 to 153 °C; for `O=C1NC(=O)C(Cc2ccc(CCNCC(O)COc3ccc(OCc4ccccc4)cc3)cc2)S1` (configuration not stated): 51 to 53 °C; for `CCCCc1nc(Cl)c(C(=O)N2CCCC2)n1Cc1ccc2oc(-c3ccccc3-c3nnn[nH]3)c(Br)c2c1`: 120 to 122 °C.
Then `O=c1cc(CCN2CCC(c3c[nH]c4ccccc34)CC2)c2ccccc2[nH]1`, with 259 to 260 °C.
For the compound `COc1ccc2sc(S(N)(=O)=O)cc2c1`, the melting point lay in the range of 125 to 127 °C.
`O=C(O)C1=Cc2cc(Cl)c(Oc3ccc([N+](=O)[O-])cc3)cc2OC1C(F)(F)F` (configuration not stated) came in with a melting point of 246 to 248 °C.
The same measure for `CCOC(=O)c1c(Cl)c(CC)c(C)[nH]c1=O`: 167 °C; for `COc1ccc(CCOc2c(-c3ccc(S(C)(=O)=O)cc3)cnn(CC(F)(F)F)c2=O)cc1OC`: 133 to 134 °C; for `Cc1cc(-c2noc(C(F)(F)F)n2)cc(C)c1OCCCc1ccc(Cl)nc1`: 89 to 91 °C.
Then `O=C(CC12CC3CC(CC(C3)C1)C2)Nc1c(Cl)ccc2ncccc12`, with 219 to 220 °C.
The same measure for `Cc1nc2c(O)c(CC[C@@H](O)c3ccccc3)c(C(=O)N3CCC3)cc2n1C`: 265 to 266 °C.
In turn, `Cn1cncc1C(c1ccc(Cl)cc1)c1ccc2c(c1)c(-c1ccccc1)cc(=O)n2C` (configuration not stated) displayed a melting point of 96.8 °C.
The same measure for `COc1cccc(C=O)c1OCc1cccc2ccccc12`: 98 to 99 °C; for `CCC(CC)(CC(=O)Nc1cccc(OCc2ccc3ccc(Cl)cc3n2)c1)C(=O)O`: 87.5 to 88.5 °C; for `COc1ccc(Cn2c(Br)nc3c(-c4ccco4)ncnc32)cc1`: 150 to 151 °C.
As to `Oc1ccccc1CNCc1cccc(CNCc2ccccc2O)c1`, the melting point was 61 to 63 °C.
For the compound `NC(=O)Cn1ccc(-c2ccc(Oc3ccc(F)cc3)cc2)n1`, the melting point was 145 °C.
The same measure for `S=C1NCC2(CC2)CN1`: 220 to 222 °C; for `Cc1cccc(C)c1C1CCN(Cc2cc3ccccc3[nH]2)CC1`: 128 to 130 °C.

(Values after a melting point compilation (Tetko et al.; mined from patent text by program, amines drawn as free bases though some values may be those of a salt).)
